Measured values from patent publication US6376511B2, “8-aminoquinolines” (The University of Mississippi, priority 1999, dated 2002).
Read-outs that look alike come from different tables or passages of the source.

Columns and labels:
L. donovani Chagasi PP75 = experiment: In vitro anti-Leishmania activity, Giemsa counts; type: cell-based; details: 1350 ng/mL; control 6.35
[1] = test system: Plasmodium berghei KBG-173; type: in vivo; details: P. berghei in mice
Method: Blood Schizontocidal Test (Trophozoite-Induced Plasmodium berghei Infection in mice University of Miami, Test System: Thompson Test
Drugs were mixed in 0.5% hydroxycellulose 0.1% Tween 80 and administered orally b.i.d. on days 3, 4 and 5 postinfection. CD-1 male or female mice, 5 weeks of age, were infected with 5×10^4 parasitized erythrocytes of Plasmodium berghei KBG-173 mm strain. Blood films were taken on day +6 and weekly thereafter until day +60. Parasitemias were calculated and SD90 value (dose suppressing 90% of the parasites in treated groups compared with the infected non-treated controls) on day +6 postinfection. Mortality data was tabulated for 60 days at which time all mice surviving that were blood film negative were considered cured.
[…] The activity of these compounds were compared with the untreated control and “racemate” which is a mixture of equal amount of each enantiomer X and Y. In untreated controls, death occurs within 8-9 days. Compounds which are effective against Plasmodium berghei infection increase the mean survival time of the infected animals when compared with the untreated controls. Mice that survive after thirty days and are free of parasites in blood are considered cured.
Efficacy of the drug is determined by the number of cures at the end of a 30 day period and the increase in mean survival time over the control (ΔMST). The effect of the test drugs also could be determined by the reduction of the parasitemia (percentage of the red blood cells detected with the parasites) over the untreated control on day 6, one day after the treatment is completed. Both these methods yield virtually identical results. If the dose of test compounds are inadequate, after initial clearance, residual parasites will multiply and relapses will occur within thirty days. The blood schizontocidal activities (suppressive antimalarial) of X, Y, and racemate against P. berghei in mice are shown in Table 11.

P. cynomolgi = details: rhesus monkey, cited from earlier work
Pneumocystis carinii = experiment: Anti-Pneumocystis carinii test (induced Pneumocystis carinii infection in immunosuppressed mice), oral; type: in vivo; details: mice (Table 8)
[2] = oral dose 1 mg/kg/day (total dose 3 mg/kg)
[3] = oral dose 4 mg/kg/day (total dose 12 mg/kg)
[4] = oral dose 16 mg/kg/day (total dose 48 mg/kg)
[5] = oral dose 64 mg/kg/day (total dose 192 mg/kg)

O=C1C(O)=C([C@H]2CC[C@H](c3ccc(Cl)cc3)CC2)C(=O)c2ccccc21 [Atovaquone, reference compound]
Giemsa Counts (L. donovani Chagasi PP75): 5.05 ± 0.21

CCCCCOc1c(OC)cc(NC(C)CCCN)c2nccc(C)c12 (stereo not drawn) [Compound 4]
Mice surviving 60 days/Mice infected and treated [1, 2]: 7/7 | Mice surviving 60 days/Mice infected and treated [1, 3]: 7/7 | Mice surviving 60 days/Mice infected and treated [1, 4]: 4/7 | Mice surviving 60 days/Mice infected and treated [1, 5]: 0/7

COc1cc(NC(C)CCCN)c2ncccc2c1 (stereo not drawn) [Primaquine, reference compound]
Monkeys infected and treated/cured (P. cynomolgi; 0.316 mg/kg/day x7, orally): 0/2 | Monkeys infected and treated/cured (P. cynomolgi; 1.0 mg/kg/day x7, orally): 1/2 | Mice surviving 60 days/Mice infected and treated [1, 2]: 0/7 | Mice surviving 60 days/Mice infected and treated [1, 3]: 0/7 | Mice surviving 60 days/Mice infected and treated [1, 4]: 1/7 | Mice surviving 60 days/Mice infected and treated [1, 5]: 3/7 | Number of animals with organism after treatment/Number of animals treated, Giesma Stain (Pneumocystis carinii; oral 5 mg/kg/day (x21), 5 mg/kg/day): 10/10 | Number of animals with organism after treatment/Number of animals treated, Giesma Stain (Pneumocystis carinii; oral 10 mg/kg/day (x21), 10 mg/kg/day): 5/10

COc1cc(NC(C)CCCN)c2nccc(C)c2c1Oc1cccc(C(F)(F)F)c1 (stereo not drawn) [WR-225,448, reference compound]
Mice surviving 60 days/Mice infected and treated [1, 2]: 7/7 | Mice surviving 60 days/Mice infected and treated [1, 3]: 7/7 | Mice surviving 60 days/Mice infected and treated [1, 4]: 7/7 | Mice surviving 60 days/Mice infected and treated [1, 5]: 4/7

COc1cc(C)c2c(Oc3cccc(C(F)(F)F)c3)c(OC)cc(NC(C)CCCN)c2n1 (stereo not drawn) [WR-238,605, reference compound]
Mice surviving 60 days/Mice infected and treated [1, 2]: 0/7 | Mice surviving 60 days/Mice infected and treated [1, 3]: 1/7 | Mice surviving 60 days/Mice infected and treated [1, 4]: 7/7 | Mice surviving 60 days/Mice infected and treated [1, 5]: 1/7
